Measurements reported in US20240158392A1 (Janssen Biotech, Inc., priority 2021, published 2024).
Like-named read-outs stand apart in the source and are kept apart here.

Target: SIK2 (Homo sapiens, UniProt Q9H0K1)
Test: SIK2 Enzymatic Assay High Version 2 (High ATP)
Format: biochemical
Procedure: All steps were performed at room temperature. Compounds were pre-plated onto an assay plate using an Echo acoustic dispenser (Labcyte, E550 or E555) at 80 nL per well. Enzyme prepared in assay buffer at 6 nM (2× final concentration) was added at 4 μL per well using the Multidrop Combi (Thermo Fisher—used for all additions in this assay) to the assay plate, spun for 1 min at 1000 rpm (Allegra 6KR Beckman Coulter centrifuge), and incubated with compound for 30 minutes. Assay buffer containing 6 mM ATP and 400 μM HDAC5tide (2× of final concentration for each substrate) was added at 4 μL per well to the assay plate and then spun as above and incubated for 2 hours. […] ADP-Glo Max Reagent (prepared and aliquoted as per manufacturer instructions) was then added at 8 μL per well, spun and incubated for 2 hours. ADP-Glo Max Detection (prepared and aliquoted as per manufacturer instructions) was added at 8 μL per well to the assay plate, which was spun and incubated for 1 hour. The plate is then read on the Pherastar (BMG Labtech) using a luminescence read. Gain is set between 2200-2500.

[1] = enzyme 6 nM, 6 mM ATP and 400 μM HDAC5tide (each 2× final concentration), 30 minutes pre-incubation, 2 hours, ADP-Glo Max luminescence, read-out: SIK2 high ATP IC50 (μM) (Test Example 2)

Sequence of SIK2 (Q9H0K1 whole entry, species assumed): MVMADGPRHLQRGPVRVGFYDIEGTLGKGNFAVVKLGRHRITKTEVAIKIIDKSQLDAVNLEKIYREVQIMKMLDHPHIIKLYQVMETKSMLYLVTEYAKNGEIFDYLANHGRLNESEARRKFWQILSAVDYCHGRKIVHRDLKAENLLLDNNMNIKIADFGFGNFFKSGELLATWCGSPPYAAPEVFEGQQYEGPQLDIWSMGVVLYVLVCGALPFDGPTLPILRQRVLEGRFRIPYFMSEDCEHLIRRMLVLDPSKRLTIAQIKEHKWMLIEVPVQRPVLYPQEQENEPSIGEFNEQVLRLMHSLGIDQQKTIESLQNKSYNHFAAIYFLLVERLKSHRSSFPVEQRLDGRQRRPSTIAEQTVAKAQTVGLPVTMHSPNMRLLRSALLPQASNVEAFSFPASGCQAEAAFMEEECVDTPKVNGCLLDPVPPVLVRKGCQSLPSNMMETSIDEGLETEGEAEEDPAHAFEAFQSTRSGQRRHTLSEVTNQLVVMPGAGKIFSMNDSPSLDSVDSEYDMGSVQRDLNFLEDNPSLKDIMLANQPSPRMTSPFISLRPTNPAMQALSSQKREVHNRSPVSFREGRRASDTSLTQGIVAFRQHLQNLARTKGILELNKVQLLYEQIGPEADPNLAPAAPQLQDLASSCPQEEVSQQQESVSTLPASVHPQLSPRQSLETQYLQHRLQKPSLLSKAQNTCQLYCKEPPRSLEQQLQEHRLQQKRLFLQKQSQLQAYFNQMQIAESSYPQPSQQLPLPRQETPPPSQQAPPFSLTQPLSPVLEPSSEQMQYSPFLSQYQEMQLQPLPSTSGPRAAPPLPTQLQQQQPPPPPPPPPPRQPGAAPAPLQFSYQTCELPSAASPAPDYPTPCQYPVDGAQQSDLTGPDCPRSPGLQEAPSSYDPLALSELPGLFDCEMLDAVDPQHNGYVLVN

SMILES	IC50 [1] [µM]	IC50 [µM]
Cc1cc(-c2ccn3nc(NC(=O)C4CC4)cc3c2)c(OCC2NCC2(F)F)cn1 (racemic) [Example 469, rac-N-[5-[5-[(3,3-difluoroazetidin-2-yl)methoxy]-2-methyl-4-pyridyl]pyrazolo[1,5-a]pyridin-2-yl]cyclopropanecarboxamide]		0.00448
Cc1cc(-c2ccn3nc(NC(=O)C4CC4)cc3c2)c(O[C@H]2C[C@H]3COC[C@@H](C2)N3C)cn1 [Example 460, N-[5-[2-methyl-5-[[(1S,5R)-9-methyl-3-oxa-9-azabicyclo[3.3.1]nonan-7-yl]oxy]-4-pyridyl]pyrazolo[1,5-a]pyridin-2-yl]cyclopropanecarboxamide]		0.0413
Cc1cc(Nc2cc3cc(-c4cc(C(F)(F)F)ncc4OC[C@H]4CCN4C)ccn3n2)nc(C)n1 [Example 625, N-(2,6-dimethylpyrimidin-4-yl)-5-[5-[[(2R)-1-methylazetidin-2-yl]methoxy]-2-(trifluoromethyl)-4-pyridyl]pyrazolo[1,5-a]pyridin-2-amine]		0.73
CN1CC(Oc2nnc(Cl)cc2-c2ccn3nc(NC(=O)C4CC4)cc3c2)C1 [Example 485, N-[5-[6-chloro-3-(1-methylazetidin-3-yl)oxy-pyridazin-4-yl]pyrazolo[1,5-a]pyridin-2-yl]cyclopropanecarboxamide]	< 0.000847	
Cc1cc(-c2ccn3nc(Nc4cc(F)n(C)n4)cc3c2)c(O[C@H]2C[C@H]3COC[C@@H](C2)N3)cn1 [Example 397, N-(5-fluoro-1-methyl-pyrazol-3-yl)-5-[2-methyl-5-[[(1S,5R,7s)-3-oxa-9-azabicyclo[3.3.1]nonan-7-yl]oxy]-4-pyridyl]pyrazolo[1,5-a]pyridin-2-amine]		0.00133
CNC(=O)c1ccc(Nc2cc3cc(-c4cc(C)ncc4O[C@H]4C[C@H]5COC[C@@H](C4)N5C(C)=O)ccn3n2)nc1 [Example 356, 6-[[5-[5-[[(1S,5R)-9-acetyl-3-oxa-9-azabicyclo[3.3.1]nonan-7-yl]oxy]-2-methyl-4-pyridyl]pyrazolo[1,5-a]pyridin-2-yl]amino]-N-methyl-pyridine-3-carboxamide]		< 0.000847
Cc1cc(-c2ccn3nc(Nc4cn(C)nc4C(O)C(F)(F)F)cc3c2)c(O[C@H]2C[C@H]3COC[C@@H](C2)N3C)cn1 (stereo partly drawn) [Example 422, 2,2,2-trifluoro-1-[1-methyl-4-[[5-[2-methyl-5-[[(1S,5R,7s)-9-methyl-3-oxa-9-azabicyclo[3.3.1]nonan-7-yl]oxy]-4-pyridyl]pyrazolo[1,5-a]pyridin-2-yl]amino]pyrazol-3-yl]ethanol]		< 0.000847
Cc1cc(-c2ccn3nc(NC(=O)C4CC4)cc3c2)c(OC[C@]2(C#N)CCN(C)C2)cn1 (single isomer, unassigned) [Example 213, (*R)—N-[5-[5-[(3-cyano-1-methyl-pyrrolidin-3-yl)methoxy]-2-methyl-4-pyridyl]pyrazolo[1,5-a]pyridin-2-yl]cyclopropanecarboxamide]	0.0505	
Cc1cc(-c2ccn3nc(NC(=O)C4CC4)cc3c2)c(O[C@H](CN)c2ccccc2)cn1 [Example 466, N-[5-[5-[(1S)-2-amino-1-phenyl-ethoxy]-2-methyl-4-pyridyl]pyrazolo[1,5-a]pyridin-2-yl]cyclopropanecarboxamide]	0.00115	
CNC(=O)c1cccc(Nc2cc3cc(-c4cc(C)ncc4O[C@H]4C[C@H]5COC[C@@H](C4)N5C)ccn3n2)n1 [Example 407, N-methyl-6-[[5-[2-methyl-5-[[(1S,5R,7s)-9-methyl-3-oxa-9-azabicyclo[3.3.1]nonan-7-yl]oxy]-4-pyridyl]pyrazolo[1,5-a]pyridin-2-yl]amino]pyridine-2-carboxamide]		0.00849
Cc1cc(-c2ccn3nc(Nc4ccnnc4)cc3c2)c(O[C@H]2C[C@H]3COC[C@@H](C2)N3)cn1 [Example 368, 5-[2-methyl-5-[[(1S,5R,7s)-3-oxa-9-azabicyclo[3.3.1]nonan-7-yl]oxy]-4-pyridyl]-N-pyridazin-4-yl-pyrazolo[1,5-a]pyridin-2-amine]		< 0.000847
Cc1cc(-c2ccn3nc(NC(=O)C4CC4)cc3c2)c(OCC2(F)CCN(C)C2)cn1 (single isomer, unassigned) [Example 449, *R—N-[5-[5-[(3-fluoro-1-methyl-pyrrolidin-3-yl)methoxy]-2-methyl-4-pyridyl]pyrazolo[1,5-a]pyridin-2-yl]cyclopropanecarboxamide]	0.0472	
Cc1cc(-c2ccn3nc(NC(=O)C4CC4)cc3c2)c(OCC2(C#N)CCNC2)cn1 (single isomer, unassigned) [Example 210, (*S)—N-[5-[5-[(3-cyanopyrrolidin-3-yl)methoxy]-2-methyl-4-pyridyl]pyrazolo[1,5-a]pyridin-2-yl]cyclopropanecarboxamide]	0.00307	
Cc1cc(-c2cn3cc(Nc4cc(C)nc(C)n4)nc3cn2)c(OC2C[C@H]3COC[C@@H](C2)N3C)cn1 (stereo partly drawn) [Example 349, N-(2,6-dimethylpyrimidin-4-yl)-6-[2-methyl-5-[[(1R,5S)-9-methyl-3-oxa-9-azabicyclo[3.3.1]nonan-7-yl]oxy]-4-pyridyl]imidazo[1,2-a]pyrazin-2-amine]		< 0.000847

Second part, led by results:

IC50 [1] [µM]	SMILES	IC50 [µM]
0.0171	Cc1cc(-c2ccn3nc(Nc4cc(C)c(=O)n(C)n4)cc3c2)c(OCC(C)(C)O)cn1 [Example 209, 6-[[5-[5-(2-hydroxy-2-methyl-propoxy)-2-methyl-4-pyridyl]pyrazolo[1,5-a]pyridin-2-yl]amino]-2,4-dimethyl-pyridazin-3-one]	
0.0797	Cc1cc(-c2ccn3nc(Nc4cc(C)nc(C)n4)cc3c2)c(OC[C@H]2C[C@H](O)CO2)cn1 [Example 609, (3S,5R)-5-[[4-[2-[(2,6-dimethylpyrimidin-4-yl)amino]pyrazolo[1,5-a]pyridin-5-yl]-6-methyl-3-pyridyl]oxymethyl]tetrahydrofuran-3-ol]	
0.00921	Cc1cc(-c2ccn3nc(Nc4cc(C)nc(C)n4)cc3c2)c(O[C@H]2CCNC2)cn1 [Example 276, N-(2,6-dimethylpyrimidin-4-yl)-5-[2-methyl-5-[(3S)-pyrrolidin-3-yl]oxy-4-pyridyl]pyrazolo[1,5-a]pyridin-2-amine]	
0.108	CNc1nc(C)cc(Nc2cc3cc(-c4cc(OC(F)F)ncc4OCC(C)(C)C#N)ccn3n2)n1 [Example 676, 3-[[6-(difluoromethoxy)-4-[2-[[6-methyl-2-(methylamino)pyrimidin-4-yl]amino]pyrazolo[1,5-a]pyridin-5-yl]-3-pyridyl]oxy]-2,2-dimethyl-propanenitrile]	
0.0195	CC(C)(C#N)COc1cnc(OC(F)F)cc1-c1ccn2nc(Nc3cccnc3)cc2c1 [Example 694, 3-[[6-(difluoromethoxy)-4-[2-(3-pyridylamino)pyrazolo[1,5-a]pyridin-5-yl]-3-pyridyl]oxy]-2,2-dimethyl-propanenitrile]	
0.00331	Cc1cc(-c2ccn3nc(Nc4cc(C)nc(C)n4)cc3c2)c(OC[C@](C)(N)C(F)(F)F)cn1 (racemic) [Example 267, (rac-)-5-[5-(2-amino-3,3,3-trifluoro-2-methyl-propoxy)-2-methyl-4-pyridyl]-N-(2,6-dimethylpyrimidin-4-yl)pyrazolo[1,5-a]pyridin-2-amine]	
0.0199	Cc1cc(-c2ccn3nc(Nc4ccc(C5CC5)nn4)cc3c2)c(OC[C@]23C[C@H](CO2)N(C)C3)cn1 [Example 235, N-(6-cyclopropylpyridazin-3-yl)-5-[2-methyl-5-[[(1R,4R)-2-methyl-5-oxa-2-azabicyclo[2.2.1]heptan-4-yl]methoxy]-4-pyridyl]pyrazolo[1,5-a]pyridin-2-amine]	
0.0759	Cc1cc(-c2ccn3nc(Nc4cc(C)nc(C)n4)cc3c2)c(OC[C@H]2C[C@@H](C#N)C2)cn1 [Example 687, 3-[[4-[2-[(2,6-dimethylpyrimidin-4-yl)amino]pyrazolo[1,5-a]pyridin-5-yl]-6-methyl-3-pyridyl]oxymethyl]cyclobutanecarbonitrile]	
0.00228	Cn1cc(Nc2cc3cc(-c4cc(OC(F)F)ncc4OCC(C)(C)C#N)ccn3n2)cn1 [Example 692, 3-[[6-(difluoromethoxy)-4-[2-[(1-methylpyrazol-4-yl)amino]pyrazolo[1,5-a]pyridin-5-yl]-3-pyridyl]oxy]-2,2-dimethyl-propanenitrile]	
0.0699	Cc1cc(Nc2cc3cc(-c4cc(OC(F)F)ncc4OCC(C)(C)C#N)ccn3n2)nc(C(C)(C)C)n1 [Example 703, 3-[[4-[2-[(2-tert-butyl-6-methyl-pyrimidin-4-yl)amino]pyrazolo[1,5-a]pyridin-5-yl]-6-(difluoromethoxy)-3-pyridyl]oxy]-2,2-dimethyl-propanenitrile]	
0.00667	Cc1cc(-c2ccn3nc(Nc4cc(C)nc(C(C)(C)C)n4)cc3c2)c(OC[C@H]2OCC[C@@H]2O)cn1 [Example 298, (2R,3S)-2-[[4-[2-[(2-tert-butyl-6-methyl-pyrimidin-4-yl)amino]pyrazolo[1,5-a]pyridin-5-yl]-6-methyl-3-pyridyl]oxymethyl]tetrahydrofuran-3-ol]	
0.0135	Cc1cc(-c2ccn3nc(Nc4cc(C(=O)NC5CC5)cc(C)n4)cc3c2)c(OCC(C)(C)O)cn1 [Example 636, N-cyclopropyl-2-[[5-[5-(2-hydroxy-2-methyl-propoxy)-2-methyl-4-pyridyl]pyrazolo[1,5-a]pyridin-2-yl]amino]-6-methyl-pyridine-4-carboxamide]	
